Test results as given in patent US20230031406A1, “COMPOUNDS AND COMPOSITIONS FOR TREATING CONDITIONS ASSOCIATED WITH NLRP ACTIVITY” (Novartis AG, priority 2018, published 2023).
Like-named read-outs stand apart in the source and are kept apart here.

Tested on: PMA-differentiated THP-1 cells
Assay: IL-1β production in PMA-differentiated THP-1 cells stimulated with gramicidin (hTHP-1 assay containing 2% fetal bovine serum; Procedures 1 and 2)
Assay type: cell-based, human
Conditions: 2% fetal bovine serum
Outline: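 IL-1β release from PMA-differentiated THP-1 macrophage-like cells was triggered by 5 μM gramicidin for 2 h after 1 h compound exposure, then measured by HTRF.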

[1] = Table B1, class symbols, read-out: Average IC50 of compounds in hTHP-1 assay: hTHP-1 IC50
[2] = Homo sapiens, THP-1, Table B4, class symbols, read-out: hTHP-1 IC50
[3] = Homo sapiens, THP-1, Table B1, class symbols, read-out: Average IC50 of compounds in hTHP-1 assay: hTHP-1 IC50
[4] = Homo sapiens, THP-1, Table B3, hTHP-1 assay, class symbols, read-out: IC50
[5] = Table B3, hTHP-1 assay, class symbols, read-out: IC50
[6] = Table B4, class symbols, read-out: hTHP-1 IC50
[7] = Table B2, class symbols, read-out: hTHP-1 IC50
[8] = Homo sapiens, THP-1, Table B2, class symbols, read-out: hTHP-1 IC50

CC1CCc2c1nc1c(c2NC(=O)N=S(N)(=O)c2cc(C(C)(C)O)cs2)CCC1C [Compound 131a, (R,S,S) and (R,R,R)-N′-((3,5-dimethyl-1,2,3,5,6,7-hexa-hydrodicyclo-penta[b,e]pyridin-8-yl)carbamoyl)-4-(2-hy-droxypropan-2-yl)thiophene-2-sulfonimidamide]
IC50 [1]: 200 to 1000 nM

C[C@H]1CCc2c1nc1c(c2NC(=O)N=S(N)(=O)c2cnc([C@](C)(O)CO)s2)CCC1 (single isomer, unassigned) [Example 732]
IC50 [2]: 1000 to 5000 nM

CC(C)c1csc(S(N)(=O)=NC(=O)Nc2c3c(nc4c2CCC4C)C(C)CC3)c1 (centres unmarked) [Compound 123, N′-((3,5-dimethyl-1,2,3,5,6,7-hexahydrodicyclopenta[b,e]pyridin-8-yl)carbamoyl)-4-isopropylthiophene-2-sulfonimidamide]
IC50 [3]: 1000 to 5000 nM

C[C@@](O)(CO)c1cc(F)c(S(N)(=O)=NC(=O)Nc2c3c(nc4c2CCC42CC2)CCC3)s1 (stereo partly drawn) [Example 607, 5-((R)-1,2-dihydroxypropan-2-yl)-3-fluoro-N′-((1′,5′,6′,7′-tetrahydro-2′H-spiro[cyclopropane-1,3′-dicyclopenta[b,e]pyridin]-8′-yl)carbamoyl)thiophene-2-sulfonimidamide]
IC50 [4]: 200 to 1000 nM

Cc1c(C(F)(F)F)nc2c(c1NC(=O)N=S(N)(=O)c1cnc(C(C)(C)O)s1)CCC2C (single isomer, unassigned) [Example 703, (R/S, S) or (R/S, R)-N′-((3,7-dimethyl-2-(trifluoromethyl)-6,7-dihydro-5H-cyclopenta[b]pyridin-4-yl)carbamoyl)-2-(2-hydroxypropan-2-yl)thiazole-5-sulfonimidamide]
IC50 [5]: 1000 to 5000 nM

CCn1cc(F)c(S(N)(=O)=NC(=O)Nc2c3c(nc(C(F)(F)F)c2-c2ccc(F)cc2)CCC3)n1 (single isomer, unassigned) [Example 787, (R) or (S)-1-ethyl-4-fluoro-N′-((3-(4-fluorophenyl)-2-(trifluoromethyl)-6,7-dihydro-5H-cyclopenta[b]pyridin-4-yl)carbamoyl)-1H-pyrazole-3-sulfonimidamide]
IC50 [6]: 8 to 40 nM

Cc1c(C2(F)CC2)nc2c(c1NC(=O)N=S(N)(=O)c1sc(C(C)(C)O)cc1F)CCC2 (single isomer, unassigned) [Example 686, (S) or (R)-3-fluoro-N′-((2-(1-fluorocyclopropyl)-3-methyl-6,7-dihydro-5H-cyclopenta[b]pyridin-4-yl)carbamoyl)-5-(2-hydroxypropan-2-yl) thiophene-2-sulfonimidamide]
IC50 (Homo sapiens, THP-1, Table B3, hTHP-1 assay, numeric values, read-out: IC50): > 30000 nM

CCn1cc(F)c(S(N)(=O)=NC(=O)Nc2c3c(nc(C(F)(F)F)c2-c2ccccc2)CCC3)n1 (single isomer, unassigned) [Example 768, (S) or (R)-1-ethyl-4-fluoro-N′-((3-phenyl-2-(trifluoromethyl)-6,7-dihydro-5H-cyclopenta[b]pyridin-4-yl)carbamoyl)-1H-pyrazole-3-sulfonimidamide]
IC50 [6]: 200 to 1000 nM

CC(O)c1nc(C(C)(C)O)sc1S(=N)(=O)NC(=O)Nc1c2c(nc3c1CCC3)CCC2 (centres unmarked) [Compound 643, N-((1,2,3,5,6,7-hexahydrodicyclopenta[b,e]pyridin-8-yl)carbamoyl)-4-(1-hydroxyethyl)-2-(2-hydroxypropan-2-yl)thiazole-5-sulfonimidamide]
IC50 [7]: 5000 to 30000 nM

Cc1c(C(F)(F)F)nc2c(c1NC(=O)N=S(N)(=O)c1cnc(C(C)(O)CO)s1)CCC2 (single isomer, unassigned) [Compound 605b, (R, R) and (S, R) or (R, S) and (S, S)-2-(l,2-Dihydroxypropan-2-yl)-N′-((3-methyl-2-(trifluoromethyl)-6,7-dihydro-5H-cyclopenta[b]pyridin-4-yl)carbamoyl) thiazole-5-sulfonimidamide]
IC50 [7]: 200 to 1000 nM

CCn1cc(F)c(S(N)(=O)=NC(=O)Nc2c(C)c(C(F)(F)F)nc3c2CCC3)n1 (single isomer, unassigned) [Example 650, (S) or (R)-1-ethyl-4-fluoro-N′-((3-methyl-2-(trifluoromethyl)-6,7-dihydro-5H-cyclopenta[b]pyridin-4-yl)carbamoyl)-1H-pyrazole-3-sulfonimidamide]
IC50 [5]: 1000 to 5000 nM

CC(C)(O)c1ncc(S(N)(=O)=NC(=O)Nc2cc(C(F)F)nc3c2CCC3)s1 (centres unmarked) [Compound 708]
IC50 (Homo sapiens, THP-1, Table B2, numeric bounds, read-out: hTHP-1 IC50): > 30000 nM

CCc1cc(NC(=O)N=S(N)(=O)c2cnc(C(C)(C)O)s2)c2c(n1)CCC2 (single isomer, unassigned) [Compound 137b, (S) or (R)-N′-((2-ethyl-6,7-dihydro-5H-cyclopenta[b]pyridin-4-yl)carbamoyl)-2-(2-hydroxypropan-2-yl)thiazole-5-sulfonimidamide]
IC50 (Table B1, numeric bounds, read-out: Average IC50 of compounds in hTHP-1 assay: hTHP-1 IC50): > 30000 nM

CCc1nc2c(c(NC(=O)N=S(N)(=O)c3sc(C(C)(C)O)cc3F)c1C1CC1)CCC2 (single isomer, unassigned) [Compound 631a, (S) or (R)-N′-((3-cyclopropyl-2-ethyl-6,7-dihydro-5H-cyclopenta[b]pyridin-4-yl)carbamoyl)-3-fluoro-5-(2-hydroxypropan-2-yl)thiophene-2-sulfonimidamide]
IC50 [7]: 5000 to 30000 nM

Cc1nc2c(c(NC(=O)N=S(N)(=O)c3sc(C(O)(CO)CO)nc3CO)c1C(F)(F)F)CCC2 (centres unmarked) [Example 587, 4-(Hydroxymethyl)-N′-((2-methyl-3-(trifluoromethyl)-6,7-dihydro-5H-cyclopenta[b]pyridin-4-yl)calbamoyl)-2-(1,2,3-trihydroxypropan-2-yl)thiazole-5-sulfonimidamide]
IC50 [4]: 5000 to 30000 nM

Cc1cc(C2CC2)nc(NC(=O)N=S(N)(=O)c2ncc(C(C)(C)O)s2)n1 (single isomer, unassigned) [Compound 185a, (R) or (S)-N′-((4-cyclopropyl-6-methylpyrimidin-2-yl)carbamoyl)-5-(2-hydroxypropan-2-yl)thiazole-2-sulfonimidamide]
IC50 [3]: 5000 to 30000 nM
IC50 [8]: 5000 to 30000 nM

CC(C)(O)c1nc(S(N)(=O)=NC(=O)Nc2c3c(nc4c2CCC4)CCC3)cs1 (single isomer, unassigned) [Compound 154b, (S) or (R)-N′-((1,2,3,5,6,7-hexahydrodicyclo-penta[b,e]pyridin-8-yl)carbamoyl)-2-(2-hydroxypropan-2-yl)thiazole-4-sulfonimidamide]
IC50 (Homo sapiens, THP-1, Table B1, numeric bounds, read-out: Average IC50 of compounds in hTHP-1 assay: hTHP-1 IC50): > 28000 nM

Cc1c(C(F)(F)F)nc2c(c1NC(=O)N=S(N)(=O)c1cnc(C(C)(C)O)s1)CCC2 (single isomer, unassigned) [Compound 661a, (R) or (S)-2-(2-Hydroxypropan-2-yl)-N′-((3-methyl-2-(trifluoromethyl)-6,7-dihydro-5H-cyclopenta[b]pyridin-4-yl)carbamoyl)thiazole-5-sulfonimidamide]
IC50 [7]: 200 to 1000 nM

CC(C)n1ccc(S(N)(=O)=NC(=O)Nc2c3c(nc4c2CCC4(C)C)CCC3)n1 (centres unmarked) [Compound 126, N′-((3,3-dimethyl-1,2,3,5,6,7-hexahydrodicyclopenta[b,e]pyridin-8-yl)carbamoyl)-1-isopropyl-1H-pyrazole-3-sulfonimidamide]
IC50 [3]: 40 to 200 nM

CC(C)c1ncc(F)c(C(C)C)c1NC(=O)N=S(N)(=O)c1sc(C(C)(C)O)cc1F (single isomer, unassigned) [Compound 106b, (S) or (R)-3-fluoro-N′-((5-fluoro-2,4-diisopropylpyridin-3-yl)carbamoyl)-5-(2-hy-droxypropan-2-yl)thiophene-2-sulfonimidamide]
IC50 [1]: 1000 to 5000 nM

Cc1c(C(F)(F)F)nc2c(c1NC(=O)N=S(N)(=O)c1cc(C(C)(C)O)cs1)CCC2 (single isomer, unassigned) [Compound 624a, (S) or (R)-4-(2-Hydroxypropan-2-yl)-N′-((3-methyl-2-(trifluoromethyl)-6,7-dihydro-5H-cyclopenta[b]pyridin-4-yl)carbamoyl) thiophene-2-sulfonimidamide]
IC50 [7]: 1000 to 5000 nM

CCn1ccc(S(N)(=O)=NC(=O)Nc2c3c(nc4c2CCC4(C)C)CCC3)n1 (single isomer, unassigned) [Compound 697a, (S) or (R)-N′-((3,3-dimethyl-1,2,3,5,6,7-hexahydrodicyclopenta [b,e]pyridin-8-yl)carbamoyl)-1-ethyl-1H-pyrazole-3-sulfonimidamide]
IC50 [7]: 5000 to 30000 nM

Cc1sc(S(N)(=O)=NC(=O)Nc2c3c(nc4c2CCC4)CCC3)cc1C(C)(C)O (centres unmarked) [Compound 107, N′-((1,2,3,5,6,7-hexahydrodicyclopenta[b,e]pyridin-8-yl)carbamoyl)-4-(2-hydroxypropan-2-yl)-5-methylthiophene-2-sulfonimidamide]
IC50 [3]: 200 to 1000 nM

Cc1c(C2CC2)nc2c(c1NC(=O)N=S(N)(=O)c1ccn(C(F)F)n1)CCC2 (single isomer, unassigned) [Compound 676b, (R) or (S)-N′-((2-cyclopropyl-3-methyl-6,7-dihydro-5H-cyclopenta[b]pyridin-4-yl)carbamoyl)-1-(difluoromethyl)-1H-pyrazole-3-sulfonimidamide]
IC50 [8]: 1000 to 5000 nM

CCn1cc(F)c(S(N)(=O)=NC(=O)Nc2c3c(nc(C(F)(F)F)c2-c2ccccc2)CCC3)n1 (centres unmarked) [Example 742, 1-Ethyl-4-fluoro-N′-((3-phenyl-2-(trifluoromethyl)-6,7-dihydro-5H-cyclopenta[b]pyridin-4-yl)carbamoyl)-1H-pyrazole-3-sulfonimidamide]
IC50 [2]: 8 to 40 nM
